Source: US20190048016A1, “SUBSTITUTED BRIDGED UREA ANALOGS AS SIRTUIN MODULATORS” (GlaxoSmithKline Intellectual Property(No.2)Limited, priority 2014, published 2019)

Molecular target: T1, SIRT1 (Homo sapiens, UniProt Q96EB6)
T1 sequence (Q96EB6 1-747): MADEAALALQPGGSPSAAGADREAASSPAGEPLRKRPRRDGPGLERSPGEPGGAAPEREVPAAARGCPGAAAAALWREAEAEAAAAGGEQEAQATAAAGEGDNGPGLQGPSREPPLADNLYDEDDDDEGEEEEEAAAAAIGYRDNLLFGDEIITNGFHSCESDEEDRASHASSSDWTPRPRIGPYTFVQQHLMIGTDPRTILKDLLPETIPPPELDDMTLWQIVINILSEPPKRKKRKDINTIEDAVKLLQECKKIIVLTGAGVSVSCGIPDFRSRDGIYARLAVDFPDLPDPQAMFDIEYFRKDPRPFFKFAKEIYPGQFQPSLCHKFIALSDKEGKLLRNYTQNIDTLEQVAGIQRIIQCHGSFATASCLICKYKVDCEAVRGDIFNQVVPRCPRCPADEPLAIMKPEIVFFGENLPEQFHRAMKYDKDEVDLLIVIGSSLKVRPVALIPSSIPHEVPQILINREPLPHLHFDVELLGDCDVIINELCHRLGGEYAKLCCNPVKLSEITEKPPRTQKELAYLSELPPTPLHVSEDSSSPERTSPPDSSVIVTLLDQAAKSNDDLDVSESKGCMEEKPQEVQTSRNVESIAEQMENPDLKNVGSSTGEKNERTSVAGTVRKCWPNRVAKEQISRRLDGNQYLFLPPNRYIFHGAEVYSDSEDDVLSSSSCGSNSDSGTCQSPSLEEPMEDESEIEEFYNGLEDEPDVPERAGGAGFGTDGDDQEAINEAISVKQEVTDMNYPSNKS
Assay: Trp mass spectrometry assay of SIRT1 activation (deacetylation of Ac-R-H-K-K(Ac)-W-NH2 peptide, OAADPR formation)
Format: biochemical
Details: Trp peptide 0.5 μM, 120 μM βNAD+, 10 nM SIRT1, 25 min, 25° C.; for Emax: 25 min, read-out: TRP MAX RESP (percent maximum fold activation relative to control = 100%)
Source text: Mass spectrometry based assays were used to identify modulators of SIRT1 activity. The TAMRA based assay utilized a peptide having 20 amino acid residues as follows: Ac-EE-K(biotin)-[…](Ac)NleSTEG-K(5TMR)-EE-NH2 (SEQ ID NO: 1), wherein K(Ac) is an acetylated lysine residue and Nle is a norleucine. The peptide was labeled with the fluorophore 5TMR (excitation 540 nm/emission 580 nm) at the C-terminus. The sequence of the peptide substrate was based on p53 with several modifications. In addition, the methionine residue naturally present in the sequence was replaced with the norleucine because the methionine may be susceptible to oxidation during synthesis and purification. The Trp based assay utilized a peptide having an amino acid residues as follows: Ac-R-H-K-K(Ac)-W-NH2 (SEQ ID NO: 2).
The Trp mass spectrometry assay was conducted as follows. 0.5 μM peptide substrate and 120 μM βNAD^+ were incubated with 10 nM SIRT1 for 25 minutes at 25° C. in a reaction buffer (50 mM HEPES pH 7.5, […], 1 mM DTT, 0.05% BSA). The SIRT1 protein was obtained by cloning the SirT1 gene into a T7-promoter containing vector, which was then expressed in BL21(DE3) bacterial cells and purified as described in further detail below. Test compound was added at varying concentrations to this reaction mixture and the resulting reactions were monitored. After the 25 minute incubation with SIRT1, 10 μL of 10% formic acid was added to stop the reaction. The resulting reactions were sealed and frozen for later mass spec analysis. The relative SIRT1 activity was then determined by measuring the amount of O-acetyl-ADP-ribose (OAADPR) formed (or, alternatively, the amount of deacetylated Trp peptide generated) by the NAD-dependent sirtuin deacetylation reaction in the presence of varying concentrations of the test compound versus control reactions lacking the test compound. The degree to which the test agent activated deacetylation by SIRT1 was expressed as EC1.5 (i.e., the concentration of compound required to increase SIRT1 activity by 50% over the control lacking test compound), and Percent Maximum Activation (i.e., the maximum activity relative to control (100%) obtained for the test compound).
A control for inhibition of sirtuin activity was conducted by adding 1 μL of 500 mM nicotinamide as a negative control at the start of the reaction (e.g., permits determination of maximum sirtuin inhibition). A control for activation of sirtuin activity was conducted using 10 nM of sirtuin protein, with 1 μL of DMSO in place of compound, to determine the amount of deacetylation of the substrate at a given time point within the linear range of the assay. This time point was the same as that used for test compounds and, within the linear range, the endpoint represents a change in velocity.
For the above assay, SIRT1 protein was expressed and purified as follows. The SirT1 gene was cloned into a T7-promoter containing vector and transformed into BL21(DE3). The protein was expressed by induction with 1 mM IPTG as an N-terminal His-tag fusion protein at 18° C. overnight and harvested at 30,000×g. Cells were lysed with lysozyme in lysis buffer (50 mM Tris-HCl, 2 mM Tris[2-carboxyethyl] phosphine (TCEP), 10 μM ZnCl2, 200 mM NaCl) and further treated with sonication for 10 min for complete lysis. The protein was purified over a Ni-NTA column (Amersham) and fractions containing pure protein were pooled, concentrated and run over a sizing column (Sephadex S200 26/60 global). The peak containing soluble protein was collected and run on an Ion-exchange column (MonoQ). Gradient elution (200 mM-500 mM NaCl) yielded pure protein. This protein was concentrated and dialyzed against dialysis buffer (20 mM Tris-HCl, 2 mM TCEP) overnight. The protein was aliquoted and frozen at −80° C. until further use.
Sirtuin-modulating compounds of Formula (I) that activated SIRT1 were identified using the assay described above and are shown below in Table 1. […]

Structure (SMILES) | Emax | TRP Activity (EC1.5, concentration of compound required to increase SIRT1 activity by 50% over control)
O=C(Nc1cccnc1)c1cc2c(nc1N1CCCC(C(F)(F)F)C1)N[C@H]1CCCN2C1 (single isomer, unassigned) [Example 60] | ≤ 150% | 
O=C(Nc1ccc(F)cn1)N1c2nc(N3CCCC(C(F)(F)F)C3)ccc2N2CCC[C@H]1C2 (single isomer, unassigned) [Example 24] | ≥ 150% | A (EC1.5<1 μM)
CC(F)(F)CNC(=O)c1ccc2c(n1)N(C(=O)Nc1cc(OC[C@H](O)CO)ccn1)[C@H]1CCCN2C1 [Example 35, (9S)-N2-(2,2-difluoropropyl)-N10-(4-((R)-2,3-dihydroxypropoxy)pyridin-2-yl)-8,9-dihydro-6H-5,9-methanopyrido[2,3-b][1,4]diazocine-2,10(7H)-dicarboxamide] | ≥ 150% | A (EC1.5<1 μM)
O=C(Nc1ccnc(OC[C@@H](O)CO)c1)N1c2nc(-c3cccc(C(F)(F)F)c3)c(Cl)cc2N2CCC[C@H]1C2 [Example 83, (9S)-3-chloro-N-(2-((S)-2,3-dihydroxypropoxy)pyridin-4-yl)-2-(3-(trifluoromethyl)phenyl)-8,9-dihydro-6H-5,9-methanopyrido[2,3-b][1,4]diazocine-10(7H)-carboxamide] | ≥ 150% | A (EC1.5<1 μM)
O=C(Nc1cnccn1)N1c2nc(-c3ccnc(C(F)(F)F)c3)ccc2N2CCC[C@H]1C2 [Example 17, (9S)-N-(pyrazin-2-yl)-2-(2-(trifluoromethyl)pyridin-4-yl)-8,9-dihydro-6H-5,9-methanopyrido[2,3-b][1,4]diazocine-10(7H)-carboxamide] | ≥ 150% | A (EC1.5<1 μM)
O=C(Nc1cncc(OC[C@H](O)CO)c1)N1c2nc(-c3cccc(C(F)(F)F)c3)c(Cl)cc2N2CCC[C@H]1C2 [Example 76, (9S)-3-chloro-N-(5-((R)-2,3-dihydroxypropoxy)pyridin-3-yl)-2-(3-(trifluoromethyl)phenyl)-8,9-dihydro-6H-5,9-methanopyrido[2,3-b][1,4]diazocine-10(7H)-carboxamide] | ≥ 150% | A (EC1.5<1 μM)
O=C(NCC(F)(F)F)c1ccc2c(n1)N(C(=O)Nc1ccccn1)[C@H]1CCCN2C1 [Example 37, (9S)-N10-(pyridin-2-yl)-N2-(2,2,2-trifluoroethyl)-8,9-dihydro-6H-5,9-methanopyrido[2,3-b][1,4]diazocine-2,10(7H)-dicarboxamide] | ≥ 150% | A (EC1.5<1 μM)
O=C(Nc1cncc(OC[C@@H](O)CO)c1)N1c2nc(-c3cccc(C(F)(F)F)c3)c(Cl)cc2N2CCC[C@H]1C2 [Example 80, (9S)-3-chloro-N-(5-((S)-2,3-dihydroxypropoxy)pyridin-3-yl)-2-(3-(trifluoromethyl)phenyl)-8,9-dihydro-6H-5,9-methanopyrido[2,3-b][1,4]diazocine-10(7H)-carboxamide] | ≥ 150% | A (EC1.5<1 μM)
O=C(Nc1ccnc(OC[C@H](O)CO)n1)N1c2nc(-c3cccc(C(F)(F)F)c3)c(Cl)cc2N2CCC[C@H]1C2 [Example 88, (9S)-3-chloro-N-(2-((R)-2,3-dihydroxypropoxy)pyrimidin-4-yl)-2-(3-(trifluoromethyl)phenyl)-8,9-dihydro-6H-5,9-methanopyrido[2,3-b][1,4]diazocine-10(7H)-carboxamide] | ≥ 150% | A (EC1.5<1 μM)
COc1cncc(NC(=O)N2c3nc(-c4ccnc(C)c4)ccc3N3CCC[C@H]2C3)n1 [Example 20, (9S)-N-(6-methoxypyrazin-2-yl)-2-(2-methylpyridin-4-yl)-8,9-dihydro-6H-5,9-methanopyrido[2,3-b][1,4]diazocine-10(7H)-carboxamide] | ≥ 150% | A (EC1.5<1 μM)
O=C(Nc1cnc(OC[C@@H](O)CO)cn1)N1c2nc(-c3cccc(C(F)(F)F)c3)c(Cl)cc2N2CCC[C@H]1C2 [Example 77, (9S)-3-chloro-N-(5-((S)-2,3-dihydroxypropoxy)pyrazin-2-yl)-2-(3-(trifluoromethyl)phenyl)-8,9-dihydro-6H-5,9-methanopyrido[2,3-b][1,4]diazocine-10(7H)-carboxamide] | ≥ 150% | A (EC1.5<1 μM)
C[C@@H](NC(=O)c1ccc2c(n1)N(C(=O)Nc1cc(OC[C@H](O)CO)ccn1)[C@H]1CCCN2C1)C(F)(F)F [Example 34, (9S)-N10-(4-((R)-2,3-dihydroxypropoxy)pyridin-2-yl)-N2-((R)-1,1,1-trifluoropropan-2-yl)-8,9-dihydro-6H-5,9-methanopyrido[2,3-b][1,4]diazocine-2,10(7H)-dicarboxamide] | ≥ 150% | A (EC1.5<1 μM)
Cc1cc(-c2ccc3c(n2)N(C(=O)Nc2ccncn2)[C@H]2CCCN3C2)ccn1 [Example 12, (9S)-2-(2-methylpyridin-4-yl)-N-(pyrimidin-4-yl)-8,9-dihydro-6H-5,9-methanopyrido[2,3-b][1,4]diazocine-10(7H)-carboxamide] | ≥ 150% | A (EC1.5<1 μM)
Cc1ccc2c(NC(=O)N3c4nc(C(=O)NC(CO)C(F)(F)F)ccc4N4CCC[C@H]3C4)n[nH]c2n1 (single isomer, unassigned) [Example 45] | ≥ 150% | B (EC1.5 1-25 μM)
Cc1cc(C(=O)N[C@H](C)C(F)(F)F)nc2c1N1CCC[C@@H](C1)N2C(=O)Nc1cc(OC[C@H](O)CO)ccn1 [Example 57, (9S)-N10-(4-((R)-2,3-dihydroxypropoxy)pyridin-2-yl)-4-methyl-N2-((R)-1,1,1-trifluoropropan-2-yl)-8,9-dihydro-6H-5,9-methanopyrido[2,3-b][1,4]diazocine-2,10(7H)-dicarboxamide] | ≥ 150% | A (EC1.5<1 μM)
